How the values were obtained:
Assay in all cases: competitive isoTOP-ABPP
Assay type in all cases: binding
[1] = target: T1, G6PD Glucose-6-phosphate 1-dehydrogenase (Homo sapiens, UniProt P11413); conditions: for isoTOP-ABPP ratio (R) at liganded lysine P11413_K171: sol, 231; for isoTOP-ABPP ratio, lysine P11413_K171: 50 uM_231_sol_in vitro
T1 construct: isoTOP-ABPP experiments performed in cell lysates (in vitro); endogenous in cells; host or cells: MDA-MB-231 soluble lysate
Method in brief: (§1)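 Readout: isotopic light/heavy MS1 peak-area ratio (R, DMSO heavy over compound light), median across peptides sharing a modified lysine. Lysate received fragment (activated esters 50 μM, guanidinylating agents 100 μM final) or DMSO, then 0.1 mM STP-alkyne probe for 1 h at ambient temperature.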

[2] = target: T2, GSTT2B Glutathione S-transferase theta-2B (Homo sapiens, UniProt P0CG30); conditions: for isoTOP-ABPP ratio (R) at liganded lysine P0CG30_K53: sol, 231; for isoTOP-ABPP ratio, lysine P0CG30_K53: 50 uM_231_sol_in vitro
T2 construct: isoTOP-ABPP experiments performed in cell lysates (in vitro); endogenous in cells; host or cells: MDA-MB-231 soluble lysate
T2 sequence (P0CG30 1-244): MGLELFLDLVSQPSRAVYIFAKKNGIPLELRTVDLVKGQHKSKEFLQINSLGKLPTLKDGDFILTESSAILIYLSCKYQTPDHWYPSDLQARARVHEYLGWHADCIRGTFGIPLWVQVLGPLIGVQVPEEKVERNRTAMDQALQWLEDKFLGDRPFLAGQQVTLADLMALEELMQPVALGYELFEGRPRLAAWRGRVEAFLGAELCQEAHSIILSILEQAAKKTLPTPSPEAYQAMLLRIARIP
Method in brief: as §1

[3] = target: T3, KIAA1967 DBIRD complex subunit KIAA1967 (Homo sapiens, UniProt Q8N163); conditions: for isoTOP-ABPP ratio (R) at liganded lysine Q8N163_K97 / isoTOP-ABPP ratio (R) at liganded lysine Q8N163_K112: sol, 231; for isoTOP-ABPP ratio, lysine Q8N163_K97 / isoTOP-ABPP ratio, lysine Q8N163_K112: 50 uM_231_sol_in vitro
T3 construct: isoTOP-ABPP experiments performed in cell lysates (in vitro); endogenous in cells; host or cells: soluble proteome of human cancer cell lines (MDA-MB-231; Ramos and Jurkat also prepared)
T3 sequence (Q8N163 whole entry, one chain of several): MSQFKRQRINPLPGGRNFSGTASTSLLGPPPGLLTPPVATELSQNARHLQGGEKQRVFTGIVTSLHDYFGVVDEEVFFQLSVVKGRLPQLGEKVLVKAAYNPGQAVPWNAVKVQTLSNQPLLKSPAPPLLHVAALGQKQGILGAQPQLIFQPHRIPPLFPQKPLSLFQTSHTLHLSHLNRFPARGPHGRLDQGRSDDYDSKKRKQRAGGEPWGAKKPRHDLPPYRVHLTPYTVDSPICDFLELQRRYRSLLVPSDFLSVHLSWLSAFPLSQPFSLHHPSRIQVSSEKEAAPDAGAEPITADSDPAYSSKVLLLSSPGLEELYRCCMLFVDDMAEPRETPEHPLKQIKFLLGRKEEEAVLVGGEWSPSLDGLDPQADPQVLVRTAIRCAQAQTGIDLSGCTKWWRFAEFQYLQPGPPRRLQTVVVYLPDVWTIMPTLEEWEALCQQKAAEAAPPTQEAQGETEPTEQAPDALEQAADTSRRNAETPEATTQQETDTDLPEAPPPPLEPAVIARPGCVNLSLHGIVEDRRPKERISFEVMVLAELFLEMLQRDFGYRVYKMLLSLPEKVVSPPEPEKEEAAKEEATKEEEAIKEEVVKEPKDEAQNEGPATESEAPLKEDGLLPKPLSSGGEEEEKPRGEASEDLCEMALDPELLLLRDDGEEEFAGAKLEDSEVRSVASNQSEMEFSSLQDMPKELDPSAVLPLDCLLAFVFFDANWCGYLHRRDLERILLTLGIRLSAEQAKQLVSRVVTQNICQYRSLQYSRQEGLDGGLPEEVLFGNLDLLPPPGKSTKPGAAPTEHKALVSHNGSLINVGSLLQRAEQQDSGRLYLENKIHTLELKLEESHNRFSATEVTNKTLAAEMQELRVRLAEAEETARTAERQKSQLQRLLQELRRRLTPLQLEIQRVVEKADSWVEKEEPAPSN
Method in brief: as §1

[4] = target: T4, PFKM 6-phosphofructokinase, muscle type (Homo sapiens, UniProt P08237); conditions: for isoTOP-ABPP ratio (R) at liganded lysine P08237_K678: sol, 231; for isoTOP-ABPP ratio, lysine P08237_K678: 50 uM_231_sol_in vitro
T4 construct: isoTOP-ABPP experiments performed in cell lysates (in vitro); endogenous in cells; host or cells: MDA-MB-231 soluble lysate
T4 sequence (P08237 1-780): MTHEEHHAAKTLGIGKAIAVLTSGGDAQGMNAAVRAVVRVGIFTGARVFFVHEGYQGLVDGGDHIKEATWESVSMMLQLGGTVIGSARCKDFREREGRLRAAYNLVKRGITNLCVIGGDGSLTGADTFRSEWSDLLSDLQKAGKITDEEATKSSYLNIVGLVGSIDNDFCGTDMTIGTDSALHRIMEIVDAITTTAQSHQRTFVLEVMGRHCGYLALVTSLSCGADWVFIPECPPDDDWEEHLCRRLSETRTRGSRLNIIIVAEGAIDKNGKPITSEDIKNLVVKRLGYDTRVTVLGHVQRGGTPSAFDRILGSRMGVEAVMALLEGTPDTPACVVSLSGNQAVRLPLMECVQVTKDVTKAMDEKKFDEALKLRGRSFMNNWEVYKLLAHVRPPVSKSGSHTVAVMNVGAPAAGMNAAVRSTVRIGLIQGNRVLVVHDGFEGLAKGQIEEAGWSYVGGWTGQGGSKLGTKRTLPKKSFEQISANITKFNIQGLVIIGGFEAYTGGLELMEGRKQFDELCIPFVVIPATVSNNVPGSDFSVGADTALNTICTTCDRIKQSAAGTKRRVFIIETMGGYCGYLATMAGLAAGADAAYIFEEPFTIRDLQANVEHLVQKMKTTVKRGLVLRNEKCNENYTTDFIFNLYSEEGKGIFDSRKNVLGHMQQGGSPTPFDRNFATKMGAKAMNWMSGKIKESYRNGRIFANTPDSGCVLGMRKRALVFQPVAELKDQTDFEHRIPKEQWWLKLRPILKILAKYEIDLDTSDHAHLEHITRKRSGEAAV
Method in brief: as §1

T1 sequence (P11413 whole entry): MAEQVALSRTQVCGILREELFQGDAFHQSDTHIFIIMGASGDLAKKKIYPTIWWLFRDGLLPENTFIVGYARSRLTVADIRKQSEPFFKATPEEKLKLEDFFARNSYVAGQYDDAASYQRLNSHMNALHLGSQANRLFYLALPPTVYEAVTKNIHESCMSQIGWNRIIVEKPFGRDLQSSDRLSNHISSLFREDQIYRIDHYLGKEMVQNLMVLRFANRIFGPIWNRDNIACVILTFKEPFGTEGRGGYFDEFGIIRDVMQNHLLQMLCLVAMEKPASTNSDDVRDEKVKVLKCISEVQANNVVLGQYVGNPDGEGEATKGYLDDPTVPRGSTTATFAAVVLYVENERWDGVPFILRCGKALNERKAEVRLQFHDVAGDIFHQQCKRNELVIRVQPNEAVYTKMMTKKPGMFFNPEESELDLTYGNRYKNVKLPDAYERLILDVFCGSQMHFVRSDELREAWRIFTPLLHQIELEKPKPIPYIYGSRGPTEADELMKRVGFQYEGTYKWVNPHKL

O=C(CCc1coc2cc(F)ccc2c1=O)Oc1ccc([N+](=O)[O-])cc1[N+](=O)[O-] [fragment 36, 2,4-Dinitrophenyl 3-(7-fluoro-4-oxo-4H-chromen-3-yl)propanoate]
isoTOP-ABPP ratio (R) at liganded lysine P11413_K171 ([1]; 50 uM, in vitro): 1.0
isoTOP-ABPP ratio (R) at liganded lysine P0CG30_K53 ([2]; 50 uM, in vitro): 0.5
isoTOP-ABPP ratio (R) at liganded lysine Q8N163_K97 ([3]; 50 uM, in vitro): 0.9
isoTOP-ABPP ratio (R) at liganded lysine Q8N163_K112 ([3]; 50 uM, in vitro): 1.1
isoTOP-ABPP ratio (R) at liganded lysine P08237_K678 ([4]; 50 uM, in vitro): 5.3

O=C(Oc1ccc([N+](=O)[O-])cc1[N+](=O)[O-])C(c1ccccc1)(c1ccccc1)c1ccccc1 [fragment 42, 2,4-Dinitrophenyl 2,2,2-triphenylacetate]
isoTOP-ABPP ratio (R) at liganded lysine P11413_K171 ([1]; 50 uM, in vitro): 0.9
isoTOP-ABPP ratio (R) at liganded lysine P0CG30_K53 ([2]; 50 uM, in vitro): 1.0
isoTOP-ABPP ratio (R) at liganded lysine Q8N163_K97 ([3]; 50 uM, in vitro): 1.0
isoTOP-ABPP ratio (R) at liganded lysine Q8N163_K112 ([3]; 50 uM, in vitro): 1.1
isoTOP-ABPP ratio (R) at liganded lysine P08237_K678 ([4]; 50 uM, in vitro): 0.9

O=C(CCc1coc2cc(F)ccc2c1=O)Oc1c(F)c(F)c(F)c(F)c1F [fragment 26, Pentafluorophenyl 3-(7-fluoro-4-oxo-4H-chromen-3-yl)propanoate]
isoTOP-ABPP reactivity ratio at lysine P11413_K171 ([1]; 50 uM, 231 sol, in vitro): 1.0
isoTOP-ABPP reactivity ratio at lysine P0CG30_K53 ([2]; 50 uM, 231 sol, in vitro): 1.3
isoTOP-ABPP reactivity ratio at lysine Q8N163_K97 ([3]; 50 uM, 231 sol, in vitro): 0.9
isoTOP-ABPP reactivity ratio at lysine Q8N163_K112 ([3]; 50 uM, 231 sol, in vitro): 1.1
isoTOP-ABPP reactivity ratio at lysine P08237_K678 ([4]; 50 uM, 231 sol, in vitro): 1.4

O=C(Oc1ccc([N+](=O)[O-])cc1[N+](=O)[O-])c1ccccc1Nc1cccc(C(F)(F)F)c1 [fragment 40, 2,4-Dinitrophenyl 2-((3-(trifluoromethyl)phenyl)amino)benzoate]
isoTOP-ABPP ratio (R) at liganded lysine P11413_K171 ([1]; 50 uM, in vitro): 1.9
isoTOP-ABPP ratio (R) at liganded lysine P0CG30_K53 ([2]; 50 uM, in vitro): 0.6
isoTOP-ABPP ratio (R) at liganded lysine Q8N163_K97 ([3]; 50 uM, in vitro): 1.0
isoTOP-ABPP ratio (R) at liganded lysine Q8N163_K112 ([3]; 50 uM, in vitro): 1.5
isoTOP-ABPP ratio (R) at liganded lysine P08237_K678 ([4]; 50 uM, in vitro): 0.9

O=C(Oc1ccc([N+](=O)[O-])cc1[N+](=O)[O-])C1CCN(C(=O)OCc2ccccc2)CC1 [fragment 34, 1-Benzyl 4-(2,4-dinitrophenyl) piperidine-1,4-dicarboxylate]
isoTOP-ABPP ratio (R) at liganded lysine P11413_K171 ([1]; 50 uM, in vitro): 0.9
isoTOP-ABPP ratio (R) at liganded lysine P0CG30_K53 ([2]; 50 uM, in vitro): 0.5
isoTOP-ABPP ratio (R) at liganded lysine Q8N163_K97 ([3]; 50 uM, in vitro): 1.3
isoTOP-ABPP ratio (R) at liganded lysine Q8N163_K112 ([3]; 50 uM, in vitro): 1.0
isoTOP-ABPP ratio (R) at liganded lysine P08237_K678 ([4]; 50 uM, in vitro): 1.1

Cn1cc(CC(=O)Oc2c(F)c(F)c(F)c(F)c2F)c2ccccc21 [fragment 22, Pentafluorophenyl 2-(1-methyl-1H-indol-3-yl)acetate]
R value (DMSO/fragment) for probe 1 labeling ([1]; P11413_K171, 50 uM, 231 sol, in vitro): 0.7
R value (DMSO/fragment) for probe 1 labeling ([2]; P0CG30_K53, 50 uM, 231 sol, in vitro): 1.0
R value (DMSO/fragment) for probe 1 labeling ([3]; Q8N163_K97, 50 uM, 231 sol, in vitro): 1.0
R value (DMSO/fragment) for probe 1 labeling ([3]; Q8N163_K112, 50 uM, 231 sol, in vitro): 1.1
R value (DMSO/fragment) for probe 1 labeling ([4]; P08237_K678, 50 uM, 231 sol, in vitro): 1.1

O=C(Oc1c(F)c(F)c(C(F)(F)F)c(F)c1F)c1cc(C(F)(F)F)cc(C(F)(F)F)c1 [fragment 47, 2,3,5,6-Tetrafluoro-4-(trifluoromethyl)phenyl 3,5-bis(trifluoromethyl)benzoate]
isoTOP-ABPP ratio, lysine P11413_K171 [1]: 1.0
isoTOP-ABPP ratio, lysine P0CG30_K53 [2]: 0.6
isoTOP-ABPP ratio, lysine Q8N163_K97 [3]: 0.9
isoTOP-ABPP ratio, lysine Q8N163_K112 [3]: 1.5
isoTOP-ABPP ratio, lysine P08237_K678 [4]: 0.8

O=C(CC12CC3CC(CC(C3)C1)C2)Oc1ccc([N+](=O)[O-])cc1[N+](=O)[O-] [fragment 38, 2,4-Dinitrophenyl 2-(adamantan-1-yl)acetate]
isoTOP-ABPP ratio (R) at liganded lysine P11413_K171 ([1]; 50 uM, in vitro): 0.9
isoTOP-ABPP ratio (R) at liganded lysine P0CG30_K53 ([2]; 50 uM, in vitro): 0.8
isoTOP-ABPP ratio (R) at liganded lysine P08237_K678 ([4]; 50 uM, in vitro): 1.0

O=C(ON1C(=O)CCC1=O)c1cc(C(F)(F)F)cc(C(F)(F)F)c1 [fragment 46, 3,5-Bis(trifluoromethyl)benzoic acid NHS ester]
isoTOP-ABPP ratio, lysine P11413_K171 [1]: 0.9
isoTOP-ABPP ratio, lysine P0CG30_K53 [2]: 1.8
isoTOP-ABPP ratio, lysine Q8N163_K97 [3]: 0.9
isoTOP-ABPP ratio, lysine Q8N163_K112 [3]: 1.1
isoTOP-ABPP ratio, lysine P08237_K678 [4]: 1.3
